# In patent US10538555B2, “Macrocyclic inhibitors of the PD-1/PD-L1 and CD80(B7-1)/PD-L1 protein/protein interactions” (BRISTOL-MYERS SQUIBB COMPANY, priority 2014, dated 2020):
# Like-named read-outs stand apart in the source and are kept apart here. Where a SMILES comes first, the peptide text is derived from it. Bridges are numbered along the chain shown (N, C = ends). [ ]: non-standard residue; d: D form. Trp(1-CH2COOH) = N[C@@H](Cc1cn(CC(=O)O)c2ccccc12)C(=O)O; Bta = N[C@@H](Cc1csc2ccccc12)C(=O)O; Hyp = O=C(O)[C@@H]1C[C@@H](O)CN1; NMeE = CN[C@@H](CCC(=O)O)C(=O)O; NMeL = CN[C@@H](CC(C)C)C(=O)O; NMeNle = CCCC[C@H](NC)C(=O)O; NMeA = CN[C@@H](C)C(=O)O; Dab = NCC[C@H](N)C(=O)O; Dap = NC[C@H](N)C(=O)O; Sar = CNCC(=O)O
# Molecular target: T1, Human PD-L1/PD-1 (Homo sapiens, UniProt Q9NZQ7)
# T1 construct: TVMV protease cleavage site (C); made in house; host or cells: HEK293T cells
# Assay: HTRF Human PD-L1/PD-1 binding assay (PD-1-Ig/PD-L1-His)
# Details: PD-L1-His 10 nM, PD-1-Ig 20 nM
# In short: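 Truncated Fc-fused human PD-1 (aa 25-167) at 20 nM and His-tagged PD-L1 (aa 18-239) at 10 nM final are used, with peptides preincubated 15 min with PD-L1. Detection uses europium-cryptate anti-Ig and APC anti-His antibodies; 665/620 nm ratio.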
# [1] = class symbol, read-out: HTRF Human PD-L1/PD-1 Binding Assay IC50 Range
# T1 sequence (Q9NZQ7 with tags, fused parts or gaps): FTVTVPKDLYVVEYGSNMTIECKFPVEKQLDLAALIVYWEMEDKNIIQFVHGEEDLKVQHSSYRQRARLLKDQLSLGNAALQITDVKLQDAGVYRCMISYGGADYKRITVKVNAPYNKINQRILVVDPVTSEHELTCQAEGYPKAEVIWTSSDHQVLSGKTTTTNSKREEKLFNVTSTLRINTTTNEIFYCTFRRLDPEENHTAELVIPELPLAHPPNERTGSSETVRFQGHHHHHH
Structure (SMILES),IC50 [1] [nM],IC50 (read-out: HTRF Human PD-L1/PD-1 Binding Assay IC50) [nM]
CCCC[C@H]1C(=O)N(C)[C@@H](CCCC)C(=O)N[C@@H](CCC(=O)O)C(=O)N[C@H](C(=O)NCC(N)=O)CSCC(=O)N[C@@H](Cc2ccc(O)cc2)C(=O)N(C)[C@@H](C)C(=O)N[C@@H](CC(N)=O)C(=O)N2CCC[C@H]2C(=O)N[C@@H](CO)C(=O)N[C@@H](CC(C)C)C(=O)N2C[C@H](O)C[C@H]2C(=O)N[C@@H](Cc2c[nH]c3ccccc23)C(=O)N[C@@H](CCN)C(=O)N[C@@H](Cc2c[nH]c3ccccc23)C(=O)N1C [Example 5247] ({CH2CO}-Y[NMeA]NPSL[Hyp]W[Dab]W[NMeNle][NMeNle]ECG-NH2; thioether N-14),1 to 9.9,
CCCC[C@H]1C(=O)N(C)[C@@H](CCCC)C(=O)N[C@@H](CC(C)C)C(=O)N[C@H](C(=O)NCC(N)=O)CSCC(=O)N[C@@H](Cc2ccc(O)cc2)C(=O)N(C)[C@@H](C)C(=O)N[C@@H](CC(N)=O)C(=O)N2CCC[C@H]2C(=O)N[C@H](C)C(=O)N[C@@H](CCC(=O)O)C(=O)N2C[C@H](O)C[C@H]2C(=O)N[C@@H](Cc2c[nH]c3ccccc23)C(=O)N[C@@H](CCN)C(=O)N[C@@H](Cc2csc3ccccc23)C(=O)N1C [Example 5248] ({CH2CO}-Y[NMeA]NP[dA]E[Hyp]W[Dab][Bta][NMeNle][NMeNle]LCG-NH2; thioether N-14),1 to 9.9,
CCCC[C@H]1C(=O)N(C)[C@@H](CCC(=O)O)C(=O)N[C@@H](CN)C(=O)N[C@H](C(=O)NCC(N)=O)CSCC(=O)N[C@@H](Cc2ccc(O)cc2)C(=O)N(C)[C@@H](C)C(=O)N[C@@H](CC(N)=O)C(=O)N2CCC[C@H]2C(=O)N[C@@H](Cc2c[nH]cn2)C(=O)N[C@@H](CCC(=O)O)C(=O)N2C[C@H](O)C[C@H]2C(=O)N[C@@H](Cc2c[nH]c3ccccc23)C(=O)N[C@@H](CCN)C(=O)N[C@@H](Cc2c[nH]c3ccccc23)C(=O)N1C [Example 5249] ({CH2CO}-Y[NMeA]NPHE[Hyp]W[Dab]W[NMeNle][NMeE][Dap]CG-NH2; thioether N-14),10 to 99.9,
CCCC[C@H]1C(=O)N(C)[C@@H](CCCC)C(=O)N[C@@H](CCC(=O)O)C(=O)N[C@H](C(=O)NCC(N)=O)CSCC(=O)N[C@@H](Cc2ccc(O)cc2)C(=O)N(C)[C@@H](C)C(=O)N[C@@H](CC(N)=O)C(=O)N2CCC[C@H]2C(=O)N[C@@H](CO)C(=O)N[C@@H](CCC(N)=O)C(=O)N2C[C@H](O)C[C@H]2C(=O)N[C@@H](Cc2c[nH]c3ccccc23)C(=O)N[C@@H](CCN)C(=O)N[C@@H](Cc2c[nH]c3ccccc23)C(=O)N1C [Example 5251] ({CH2CO}-Y[NMeA]NPSQ[Hyp]W[Dab]W[NMeNle][NMeNle]ECG-NH2; thioether N-14),1 to 9.9,
CCCC[C@H]1C(=O)N(C)[C@@H](CCCC)C(=O)N[C@@H](CCC(=O)O)C(=O)N[C@H](C(=O)NCC(N)=O)CSCC(=O)N[C@@H](Cc2ccc(O)cc2)C(=O)N(C)[C@@H](C)C(=O)N[C@@H](CC(=O)O)C(=O)N2CCC[C@H]2C(=O)N[C@@H](CO)C(=O)N[C@@H](CCC(=O)O)C(=O)N2C[C@H](O)C[C@H]2C(=O)N[C@@H](Cc2c[nH]c3ccccc23)C(=O)N[C@@H](CCN)C(=O)N[C@@H](Cc2c[nH]c3ccccc23)C(=O)N1C [Example 5252] ({CH2CO}-Y[NMeA]DPSE[Hyp]W[Dab]W[NMeNle][NMeNle]ECG-NH2; thioether N-14),1 to 9.9,
CCCC[C@H]1C(=O)N(C)[C@@H](CCCC)C(=O)N[C@@H](CN)C(=O)N[C@H](C(=O)NCC(N)=O)CSCC(=O)N[C@@H](Cc2ccc(O)cc2)C(=O)N(C)[C@@H](C)C(=O)N[C@@H](CC(N)=O)C(=O)N2CCC[C@H]2C(=O)N[C@@H](CN)C(=O)N[C@@H](CCC(N)=O)C(=O)N2C[C@H](O)C[C@H]2C(=O)N[C@@H](Cc2c[nH]c3ccccc23)C(=O)N[C@@H](CO)C(=O)N[C@@H](Cc2cn(CC(=O)O)c3ccccc23)C(=O)N1C [Example 5253] ({CH2CO}-Y[NMeA]NP[Dap]Q[Hyp]WS[Trp(1-CH2COOH)][NMeNle][NMeNle][Dap]CG-NH2; thioether N-14),1 to 9.9,
CCCC[C@H]1C(=O)N(C)[C@@H](CCCC)C(=O)N[C@@H](CCC(=O)O)C(=O)N[C@H](C(=O)NCC(N)=O)CSCC(=O)N[C@@H](Cc2ccc(O)cc2)C(=O)N(C)[C@@H](C)C(=O)N[C@@H](CC(=O)O)C(=O)N2CCC[C@H]2C(=O)N[C@@H](CO)C(=O)N[C@@H](CC(C)C)C(=O)N2C[C@H](O)C[C@H]2C(=O)N[C@@H](Cc2c[nH]c3ccccc23)C(=O)N[C@@H](CCC(=O)O)C(=O)N[C@@H](Cc2c[nH]c3ccccc23)C(=O)N1C [Example 5254] ({CH2CO}-Y[NMeA]DPSL[Hyp]WEW[NMeNle][NMeNle]ECG-NH2; thioether N-14),10 to 99.9,
CCCC[C@H]1C(=O)N(C)[C@@H](CCCC)C(=O)N[C@@H](CCC(=O)O)C(=O)N[C@H](C(=O)NCC(N)=O)CSCC(=O)N[C@@H](Cc2ccc(O)cc2)C(=O)N(C)[C@@H](C)C(=O)N[C@@H](CC(=O)O)C(=O)N2CCC[C@H]2C(=O)N[C@@H](Cc2c[nH]cn2)C(=O)N[C@@H](CCCCNC(C)=O)C(=O)N2C[C@H](O)C[C@H]2C(=O)N[C@@H](Cc2c[nH]c3ccccc23)C(=O)N[C@@H](CO)C(=O)N[C@@H](Cc2c[nH]c3ccccc23)C(=O)N1C [Example 5255] ({CH2CO}-Y[NMeA]DPHK(Ac)[Hyp]WSW[NMeNle][NMeNle]ECG-NH2; thioether N-14),1 to 9.9,
CCCC[C@H]1C(=O)N(C)[C@@H](CCCC)C(=O)N[C@@H](CCCNC(=N)N)C(=O)N[C@H](C(=O)NCC(N)=O)CSCC(=O)N[C@@H](Cc2ccc(O)cc2)C(=O)N(C)[C@@H](C)C(=O)N[C@@H](CC(=O)O)C(=O)N2CCC[C@H]2C(=O)N[C@@H](Cc2c[nH]cn2)C(=O)N[C@@H](CCCCN)C(=O)N2C[C@H](O)C[C@H]2C(=O)N[C@@H](Cc2c[nH]c3ccccc23)C(=O)N[C@@H](CCCCN)C(=O)N[C@@H](Cc2csc3ccccc23)C(=O)N1C [Example 5256],10 to 99.9,
CCCC[C@H]1C(=O)N(C)[C@@H](CCCC)C(=O)N[C@@H](CCC(=O)O)C(=O)N[C@H](C(=O)NCC(N)=O)CSCC(=O)N[C@@H](Cc2ccc(O)cc2)C(=O)N(C)[C@@H](C)C(=O)N[C@@H](CC(=O)O)C(=O)N2CCC[C@H]2C(=O)N[C@@H](CN)C(=O)N[C@@H](CC(C)C)C(=O)N2C[C@H](O)C[C@H]2C(=O)N[C@@H](Cc2c[nH]c3ccccc23)C(=O)N[C@@H](CCC(=O)O)C(=O)N[C@@H](Cc2c[nH]c3ccccc23)C(=O)N1C [Example 5257] ({CH2CO}-Y[NMeA]DP[Dap]L[Hyp]WEW[NMeNle][NMeNle]ECG-NH2; thioether N-14),10 to 99.9,
CCCC[C@H]1C(=O)N(C)[C@@H](CCCC)C(=O)N[C@@H](CC(C)C)C(=O)N[C@H](C(=O)NCC(N)=O)CSCC(=O)N[C@@H](Cc2ccc(O)cc2)C(=O)N(C)[C@@H](C)C(=O)N[C@@H](CC(N)=O)C(=O)N2CCC[C@H]2C(=O)N[C@@H](CN)C(=O)N[C@@H](CCC(N)=O)C(=O)N2C[C@H](O)C[C@H]2C(=O)N[C@@H](Cc2c[nH]c3ccccc23)C(=O)N[C@@H](CCN)C(=O)N[C@@H](Cc2cn(CC(=O)O)c3ccccc23)C(=O)N1C [Example 5259] ({CH2CO}-Y[NMeA]NP[Dap]Q[Hyp]W[Dab][Trp(1-CH2COOH)][NMeNle][NMeNle]LCG-NH2; thioether N-14),1 to 9.9,
CCCC[C@H]1C(=O)N(C)[C@@H](CCCC)C(=O)N[C@@H](CCC(=O)O)C(=O)N[C@H](C(=O)NCC(N)=O)CSCC(=O)N[C@@H](Cc2ccc(O)cc2)C(=O)N(C)[C@@H](C)C(=O)N[C@@H](CC(=O)O)C(=O)N2CCC[C@H]2C(=O)N[C@@H](CO)C(=O)N[C@@H](CCC(=O)O)C(=O)N2C[C@H](O)C[C@H]2C(=O)N[C@@H](Cc2c[nH]c3ccccc23)C(=O)N[C@@H](CCC(=O)O)C(=O)N[C@@H](Cc2c[nH]c3ccccc23)C(=O)N1C [Example 5260] ({CH2CO}-Y[NMeA]DPSE[Hyp]WEW[NMeNle][NMeNle]ECG-NH2; thioether N-14),1 to 9.9,
CCCC[C@H]1C(=O)N(C)[C@@H](CCCC)C(=O)N[C@@H](CC(C)C)C(=O)N[C@H](C(=O)NCC(N)=O)CSCC(=O)N[C@@H](Cc2ccc(O)cc2)C(=O)N(C)[C@@H](C)C(=O)N[C@@H](CC(N)=O)C(=O)N2CCC[C@H]2C(=O)N(C)CC(=O)N[C@@H](CCC(N)=O)C(=O)N2C[C@H](O)C[C@H]2C(=O)N[C@@H](Cc2c[nH]c3ccccc23)C(=O)N[C@@H](CO)C(=O)N[C@@H](Cc2c[nH]c3ccccc23)C(=O)N1C [Example 5262] ({CH2CO}-Y[NMeA]NP[Sar]Q[Hyp]WSW[NMeNle][NMeNle]LCG-NH2; thioether N-14),,101
CCCC[C@H]1C(=O)N(C)[C@@H](CCCC)C(=O)N(C)CC(=O)N[C@H](C(=O)NCC(N)=O)CSCC(=O)N[C@@H](Cc2ccc(O)cc2)C(=O)N(C)[C@@H](C)C(=O)N[C@@H](CC(N)=O)C(=O)N2CCC[C@H]2C(=O)N[C@@H](Cc2c[nH]cn2)C(=O)N[C@@H](CCC(N)=O)C(=O)N2C[C@H](O)C[C@H]2C(=O)N[C@@H](Cc2c[nH]c3ccccc23)C(=O)N[C@@H](CO)C(=O)N[C@@H](Cc2c[nH]c3ccccc23)C(=O)N1C [Example 5263] ({CH2CO}-Y[NMeA]NPHQ[Hyp]WSW[NMeNle][NMeNle][Sar]CG-NH2; thioether N-14),1000 to 10000,
CCCC[C@H]1C(=O)N(C)[C@@H](CCCC)C(=O)N(C)[C@@H](CC(C)C)C(=O)N[C@H](C(=O)NCC(N)=O)CSCC(=O)N[C@@H](Cc2ccc(O)cc2)C(=O)N(C)[C@@H](C)C(=O)N[C@@H](CC(N)=O)C(=O)N2CCC[C@H]2C(=O)N[C@@H](Cc2c[nH]cn2)C(=O)N[C@@H](CCC(=O)O)C(=O)N2C[C@H](O)C[C@H]2C(=O)N[C@@H](Cc2c[nH]c3ccccc23)C(=O)N[C@@H](CCN)C(=O)N[C@@H](Cc2csc3ccccc23)C(=O)N1C [Example 5264] ({CH2CO}-Y[NMeA]NPHE[Hyp]W[Dab][Bta][NMeNle][NMeNle][NMeL]CG-NH2; thioether N-14),1000 to 10000,
